The values below come from patent publication US20110178092A1, “HIV-1 Protease Inhibitors” (priority 2005, published 2011).

Format in all cases: biochemical
In assay [1] the target is HIV-1 protease MDR mutant M3 (L10I, L63P, A71V, G73S, I84V, L90M) (Human immunodeficiency virus type 1 group M subtype B, UniProt P04585, A559V/G561S/I572V/L498I/L551P/L578M/Q495K). The following applies: qualitative statement. An excerpt:
(§1) The mutant variants were selected by examining the Stanford HIV-1 Drug Resistance Database (http://hivdb.stanford.edu) of HIV-1 infected-patient sequences of viral isolates. […] (Wu, T. D. et al. J. Virol. 2003, 77, 4836-4847.) These MDR mutant variants are L10I, G48V, I54V, L63P, V82A (M1), D30N, L63P, N88D (M2), and L10I, L63P, A71V, G73S, I84V, L90M (M3).
(§2) The energy transfer donor (EDANS) and acceptor (DABCYL) were labeled at its two ends respectively to perform FRET. Fluorescence measurements were carried out on PTI fluorescence spectrophotometer (Photon Technology International) at 30° C. Excitation and emission wavelengths were set at 340 nm and 490 nm, respectively. Each reaction was recorded for about 10 min. Wide type HIV-1 protease (Q7K) and its MDR mutants M1 (L10I, G48V, I54V, L63P, V82A), M2 (D30N, L63P, N88D), and M3 (L10I, L63P, A71V, G73S, I84V, L90M) were desalted through PD-10 columns (Amersham Biosciences). Sodium Acetate (20 mM, pH 5) was used as elution buffer. Apparent protease concentrations were around 50 nM estimated by UV spectrophotometer (Shimadzu) at 280 nm. All inhibitors were dissolved in DMSO and diluted to appropriate concentrations. Protease (2 μL) and inhibitor (2 μL) or DMSO were mixed and incubated for 20-30 min at room temperature before initialing substrate cleavage reaction. Throughout this work, 150 μL of 1 μM substrate was used. Substrate buffer is composite of 0.1 M sodium acetate, 1 M sodium chloride, 1 mM ethylenediaminetetraacetic acid (EDTA), 1 mM dithiothreitol (DTT), 2% dimethylsulfoxide (DMSO) and 1 mg/mL bovine serum albumin (BSA) with an adjusted pH 4.7. Inhibitor binding dissociation constant (Ki) was obtained by nonlinear regression fitting (GraFit 5, Erithacus software) to the plot of initial velocity as a function of inhibitor concentrations based on Morrison equation.

For assay [2], the target named is HIV-1 protease MDR mutant M1 (L10I, G48V, I54V, L63P, V82A) (Human immunodeficiency virus type 1 group M subtype B, UniProt P04585, G536V/I542V/L498I/L551P/Q495K/V570A). To be noted: qualitative statement.
Text: as §1, §2

Assay [3] concerns the target HIV-1 protease MDR mutant M2 (D30N, L63P, N88D) (Human immunodeficiency virus type 1 group M subtype B, UniProt P04585, D518N/L551P/N576D/Q495K). To be noted: qualitative statement.
Text: as §1, §2

Assay [4] concerns the target T1, wild type HIV-1 protease (Q7K) (Human immunodeficiency virus type 1 group M subtype B, UniProt P04585, Q495K).
T1 construct: Wide type HIV-1 protease (Q7K)
Nature of the assay: FRET HIV-1 protease inhibition assay, wild type. Here is the method:
Biological Evaluation of Selected Compounds of the Invention. HIV protease inhibitor activities were determined by fluorescence resonance energy transfer (FRET) method. […] Inhibitor binding dissociation constant (Ki value) was obtained by nonlinear regression fitting to the plot of initial velocity as a function of inhibitor concentration based on Morrison equation.
as §2

[5] abbreviates: wild type HIV-1 protease (Q7K), FRET, in triplicate, read-out: Ki.

Structures are written as SMILES. pKi: −log10 of the molar value. Like-named read-outs stand apart in the source and are kept apart here.

As to `Cc1cccc(C)c1OCC(=O)N[C@@H](Cc1ccccc1)[C@@H](O)C[C@H](Cc1ccccc1)NC(=O)[C@H](C(C)C)N1CCCNC1=O` [LPV, lopinavir], in assay [1], the “activity against M3 mutant relative to wild type (in words)” value is “significantly loses activity”. Further, the “activity against M1 mutant relative to wild type (in words)” value in assay [2] is “significantly loses activity”. The “activity against M2 mutant relative to wild type (in words)” value in assay [3] is recorded as “retains high affinity”. A word on the pKi: it is the Ki on a negative log10 scale, so that one unit is a factor of ten. For `COc1ccc(S(=O)(=O)N(CC(C)C)C[C@@H](O)[C@H](Cc2ccccc2)NC(=O)[C@@H]2CN(c3cccc(F)c3)C(=O)O2)cc1` [21b, (5S)—N-[(1S,2R)-1-Benzyl-2-hydroxy-3-[isobutyl[(4-methoxyphenyl)sulfonyl]amino]-propyl]-3-(3-fluorophenyl)-2-oxo-oxazolidine-S-carboxamide], the negative-log Ki (pKi) in assay [4] is 10.10.

On to `COc1ccc(S(=O)(=O)N(CC(C)C)C[C@@H](O)[C@H](Cc2ccccc2)NC(=O)[C@@H]2CN(c3cccc(F)c3)C(=O)O2)cc1F` [27b, (5S)—N-[(1S,2R)-1-Benzyl-3-[[(3-fluoro-4-methoxyphenyl)sulfonyl](isobutyl)amino]-2-hydroxypropyl]-3-(3-fluorophenyl)-2-oxo-oxazolidine-S-carboxamide], for which the pKi in assay [4] (setting [5]) is 10.15. Still for that read-out and setting: in the case of `COc1ccc(S(=O)(=O)N(CC(C)C)C[C@@H](O)[C@H](Cc2ccccc2)NC(=O)[C@@H]2CN(c3ccccc3)C(=O)O2)cc1` [21a, (5S)—N-[(1S,2R)-1-Benzyl-2-hydroxy-3-[isobutyl[(4-methoxyphenyl)sulfonyl]amino]propyl]-2-oxo-3-phenyloxazolidine-S-carboxamide] it was 10.00. Still for that read-out and setting: the result for `CC(C)CN(C[C@@H](O)[C@H](Cc1ccccc1)NC(=O)[C@@H]1CN(c2ccccc2)C(=O)O1)S(=O)(=O)c1ccc(N)cc1` [25a, (5S)—N-[(1S,2R)-3-[[(4-Aminophenyl)sulfonyl](isobutyl)amino]-1-benzyl-2-hydroxypropyl]-2-oxo-3-phenyloxazolidine-S-carboxamide] reads 9.28. `CC(C)CN(C[C@@H](O)[C@H](Cc1ccccc1)NC(=O)[C@H]1CN(c2ccccc2)C(=O)O1)S(=O)(=O)c1ccc(N)cc1` [24a, (5R)—N-[(1S,2R)-3-[[(4-Aminophenyl)sulfonyl](isobutyl)amino]-1-benzyl-2-hydroxypropyl]-2-oxo-3-phenyloxazolidine-S-carboxamide]: the pKi in assay [4] was 7.43.

In the case of `COc1cccc(S(=O)(=O)N(CC2CC2)C[C@@H](O)[C@H](Cc2ccccc2)NC(=O)[C@@H]2CN(c3ccc(C(C)=O)cc3)C(=O)O2)c1` [36f, (5S)-3-(4-Acetylphenyl)-N-[(1S,2R)-1-Benzyl-3-[(cyclopropylmethyl)[(3-methoxy-phenyl)sulfonyl]amino]-2-hydroxypropyl]-2-oxo-oxazolidine-S-carboxamide], in assay [4] (cyclopropylmethyl at P1' vs isobutyl analog, wild type), the “fold higher Ki than the corresponding inhibitor with isobutyl group at P1'” value is recorded as approximately 200 fold. In addition, the pKi in assay [4] (setting [5]) is 10.10.
